From patent US20260116920A1, “HUMAN TRANSFERRIN RECEPTOR BINDING PEPTIDE” (PEPTIDREAM INC., priority 2021, published 2026)
Read-outs that look alike come from different tables or passages of the source. Starred links: 1 amine or outer side, 2 acyl side, 3 side chain; linkers in the order of their positions; H or OH if unused. Positions of bridges follow the written chain, without caps; N, C: chain ends. Non-standard residues stand in square brackets, D forms with d. Residues, ends and D or L forms follow the SMILES beside them. *: point of attachment. E(PEG8Me) = (S)-30-amino-27-oxo-2,5,8,11,14,17,20,23-octaoxa-26-azahentriacontane-31-oic acid, COCCOCCOCCOCCOCCOCCOCCOCCNC(=O)CC[C@H](N[*:1])C(=O)[*:2]; F4aao = (S)-2-amino-3-(4-(carboxymethoxy)phenyl)propanoic acid, O=C([C@H](Cc1ccc(OCC(=O)[*:3])cc1)N[*:1])[*:2]; Trp(1-CH2CO) = O=C([C@H](Cc1cn(CC(=O)[*:3])c2ccccc12)N[*:1])[*:2]; Trp(1-CH2COOH) = N[C@@H](Cc1cn(CC(=O)O)c2ccccc12)C(=O)O; BCN(endo) = O=C(OC[C@@H]1[C@@H]2CCC#CCC[C@@H]21)*; NH(CH2CH2O)8Me = COCCOCCOCCOCCOCCOCCOCCOCCN*; NMePhe(3-Cl) = CN[C@@H](Cc1cccc(Cl)c1)C(=O)O; 3Pal(6-NH2) = Nc1ccc(C[C@H](N)C(=O)O)cn1; PEG8 = NCCOCCOCCOCCOCCOCCOCCOCCOCCC(=O)O; Lys(N3) = [N-]=[N+]=NCCCC[C@H](N)C(=O)O; NMeY = CN[C@@H](Cc1ccc(O)cc1)C(=O)O; NH(CH2CH2O)4Me = COCCOCCOCCOCCN*; 3Pal = N[C@@H](Cc1cccnc1)C(=O)O; 4Pal = N[C@@H](Cc1ccncc1)C(=O)O; PEG4 = NCCOCCOCCOCCOCCC(=O)O; Carboxymethyl = O=C(O)C*

Target: T1, human transferrin receptor (hTfR) (Homo sapiens, UniProt P02786)
T1 construct: made in house
Assay: Evaluation of molecular interaction between transferrin receptor (hTfR) and peptide using surface plasmon resonance (SPR)
Assay type: binding
In short: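 Binding kinetics of peptides to immobilized recombinant human TfR dimer were measured by SPR at 5–100 nM in a single-cycle format, with KD obtained from curve fitting.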

[1] = surface plasmon resonance, binding to hTfR, KD class symbol, read-out: SPR (KD value)
[2] = KD class for binding to hTfR by SPR, peptide with the linker shown in the same line, 'low signal indicates no activity', read-out: SPR

T1 sequence (P02786 89-760 limits assumed): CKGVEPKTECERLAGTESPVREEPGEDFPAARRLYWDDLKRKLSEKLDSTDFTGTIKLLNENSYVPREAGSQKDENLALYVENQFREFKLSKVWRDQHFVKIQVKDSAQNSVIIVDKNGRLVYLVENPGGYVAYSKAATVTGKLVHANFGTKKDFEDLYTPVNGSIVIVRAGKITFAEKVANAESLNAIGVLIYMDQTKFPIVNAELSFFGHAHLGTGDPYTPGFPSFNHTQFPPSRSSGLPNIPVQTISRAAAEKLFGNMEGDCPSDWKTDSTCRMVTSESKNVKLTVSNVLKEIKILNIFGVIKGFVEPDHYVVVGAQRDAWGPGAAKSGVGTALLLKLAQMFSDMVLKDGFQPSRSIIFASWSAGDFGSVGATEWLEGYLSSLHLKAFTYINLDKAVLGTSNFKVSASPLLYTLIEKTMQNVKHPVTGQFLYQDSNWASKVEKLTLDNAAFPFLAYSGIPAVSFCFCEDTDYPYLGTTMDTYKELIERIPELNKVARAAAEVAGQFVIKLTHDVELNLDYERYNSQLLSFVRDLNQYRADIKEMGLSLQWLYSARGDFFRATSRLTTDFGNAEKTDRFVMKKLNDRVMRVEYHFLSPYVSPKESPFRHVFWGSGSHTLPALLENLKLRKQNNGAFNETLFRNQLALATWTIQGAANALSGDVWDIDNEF

Molecule	Kd [1] [nM]	Kd [2] [nM]	other results
CC[C@H](C)[C@@H]1NC(=O)[C@H](Cc2ccc(OCC(=O)O)cc2)NC(=O)[C@H](Cc2ccc(O)cc2)NC(=O)[C@H](CC(N)=O)NC(=O)[C@H](Cc2c[nH]c3ccccc23)NC(=O)[C@H](C(C)C)NC(=O)[C@H](Cc2ccccc2)N(C)C(=O)[C@H](C(C)C)NC(=O)[C@H](C)NC(=O)CSC[C@@H](C(=O)NCC(=O)N[C@H](CCC(=O)O)C(=O)N[C@H](CCC(=O)O)C(=O)N[C@H](CCC(=O)O)C(=O)N[C@H](CO)C(=O)N[C@H](CO)C(=O)N[C@@H](CCCCN=[N+]=[N-])C(N)=O)NC(=O)[C@H](Cc2ccc(O)cc2)N(C)C(=O)[C@H](Cc2ccc(O)cc2)NC(=O)[C@H](CCCNC(=N)N)NC(=O)[C@H](CCCNC(=N)N)NC(=O)[C@H]([C@@H](C)CC)NC1=O [compound 41]	1 to 100	–	–
CC[C@H](C)[C@@H]1NC(=O)[C@H](Cc2ccc(OC)cc2)NC(=O)[C@H](Cc2ccc(O)cc2)NC(=O)[C@H](CC(N)=O)NC(=O)[C@H](Cc2c[nH]c3ccc(Cl)cc23)NC(=O)[C@H](C(C)C)NC(=O)[C@H](Cc2ccc(F)cc2)N(C)C(=O)[C@H](C(C)C)NC(=O)[C@H](C)NC(=O)CSC[C@@H](C(=O)NCC(=O)N[C@@H](CCCCN=[N+]=[N-])C(N)=O)NC(=O)[C@H](Cc2ccc(O)cc2)N(C)C(=O)[C@H](Cc2ccccc2)NC(=O)[C@@H](CCCNC(=N)N)NC(=O)[C@H](CCCNC(=N)N)NC(=O)[C@H]([C@@H](C)CC)NC1=O [894_3157]	–	100 to 1000	–
CC[C@H](C)[C@@H]1NC(=O)[C@H](Cc2cccnc2)NC(=O)[C@H](Cc2ccc(O)cc2)NC(=O)[C@H](CC(N)=O)NC(=O)[C@H](Cc2c[nH]c3ccccc23)NC(=O)[C@H](C(C)C)NC(=O)[C@H](Cc2cccc(Cl)c2)N(C)C(=O)[C@H](C(C)C)NC(=O)[C@H](C)NC(=O)CSC[C@@H](C(=O)NCC(=O)N[C@@H](CCCCN=[N+]=[N-])C(N)=O)NC(=O)[C@H](Cc2ccc(O)cc2)N(C)C(=O)[C@H](Cc2ccncc2)NC(=O)[C@H](CCCNC(=N)N)NC(=O)[C@H](CCCNC(=N)N)NC(=O)[C@H]([C@@H](C)CC)NC1=O [894_3188] ({CH2CO}-AV[NMePhe(3-Cl)]VWNY[3Pal]IIRR[4Pal][NMeY]CG[Lys(N3)]-NH2; thioether N-15)	–	1 to 100	–
CC[C@H](C)[C@@H]1NC(=O)[C@H](Cc2ccc(OCC(=O)O)cc2)NC(=O)[C@H](Cc2ccc(O)cc2)NC(=O)[C@H](CC(N)=O)NC(=O)[C@H](Cc2c[nH]c3ccccc23)NC(=O)[C@H](C(C)C)NC(=O)[C@H](Cc2cccc(Cl)c2)N(C)C(=O)[C@H](C(C)C)NC(=O)[C@H](C)NC(=O)CSC[C@@H](C(=O)NCCOCCOCCOCCOCCC(N)=O)NC(=O)[C@H](Cc2ccc(O)cc2)N(C)C(=O)[C@H](Cc2ccccc2)NC(=O)[C@H](CCC(N)=O)NC(=O)[C@H](CCC(=O)NCCOCCOCCOCCOC)NC(=O)[C@H]([C@@H](C)CC)NC1=O [compound 123] ({CH2CO}-AV[NMePhe(3-Cl)]VWNYY(Carboxymethyl)IIE(NH(CH2CH2O)4Me)QF[NMeY]C[PEG4]-NH2; thioether N-15)	1 to 100	–	–
CC[C@H](C)[C@@H]1NC(=O)[C@H](Cc2ccc(OCC(=O)O)cc2)NC(=O)[C@H](Cc2ccc(O)cc2)NC(=O)[C@H](CC(N)=O)NC(=O)[C@H](Cc2c[nH]c3ccccc23)NC(=O)[C@H](C(C)C)NC(=O)[C@H](Cc2cccc(Cl)c2)N(C)C(=O)[C@H](C(C)C)NC(=O)[C@H](C)NC(=O)CSC[C@@H](C(=O)NCCOCCOCCOCCOCCC(N)=O)NC(=O)[C@H](Cc2ccc(O)cc2)N(C)C(=O)[C@H](Cc2ccccc2)NC(=O)[C@H](CCCCN2CCOCC2)NC(=O)[C@H](CCC(=O)NCCOCCOCCOCCOC)NC(=O)[C@H]([C@@H](C)CC)NC1=O [compound 120]	1 to 100	–	–
CC[C@H](C)[C@@H]1NC(=O)[C@H](Cc2ccc(OCC(=O)O)cc2)NC(=O)[C@H](Cc2ccc(O)cc2)NC(=O)[C@H](CC(N)=O)NC(=O)[C@H](Cc2cn(CC(=O)O)c3ccccc23)NC(=O)[C@H](C(C)C)NC(=O)[C@H](Cc2cccc(Cl)c2)N(C)C(=O)[C@H](C(C)C)NC(=O)[C@H](C)NC(=O)CSC[C@@H](C(=O)NCCOCCOCCOCCOCCC(N)=O)NC(=O)[C@H](Cc2ccc(O)cc2)N(C)C(=O)[C@H](Cc2ccccc2)NC(=O)[C@H](CCC(=O)N2CCN(CC(=O)O)CC2)NC(=O)[C@H](CCCNC(=N)N)NC(=O)[C@H]([C@@H](C)CC)NC1=O [894_0384]	–	1 to 100	–
CC[C@H](C)[C@@H]1NC(=O)[C@H](Cc2ccc(O)cc2)NC(=O)[C@H](Cc2ccc(O)cc2)NC(=O)[C@H](CC(N)=O)NC(=O)[C@H](Cc2c[nH]c3ccccc23)NC(=O)[C@H](C(C)C)NC(=O)[C@H](Cc2ccccc2)N(C)C(=O)[C@H](C(C)C)NC(=O)[C@H](C)NC(=O)CSC[C@@H](C(=O)NCCOCCOCCOCCOCCC(N)=O)NC(=O)[C@H](Cc2ccc(O)cc2)N(C)C(=O)[C@H](Cc2ccccc2)NC(=O)[C@@H](CCCNC(=N)N)NC(=O)[C@H](CCCNC(=N)N)NC(=O)[C@H]([C@@H](C)CC)NC1=O [compound 14]	1 to 100	–	–
CC[C@H](C)[C@@H]1NC(=O)[C@H](Cc2ccc(OCC(=O)O)cc2)NC(=O)[C@H](Cc2ccc(N)nc2)NC(=O)[C@H](CC(N)=O)NC(=O)[C@H](Cc2c[nH]c3ccccc23)NC(=O)[C@H](C(C)C)NC(=O)[C@H](Cc2cccc(Cl)c2)N(C)C(=O)[C@H](C(C)C)NC(=O)[C@H](C)NC(=O)CSC[C@@H](C(=O)NCCOCCOCCOCCOCCC(N)=O)NC(=O)[C@H](Cc2ccc(O)cc2)N(C)C(=O)[C@H](Cc2ccncc2)NC(=O)[C@H](CCC(=O)NCCOCCOCCOCCOCCOCCOCCOCCOC)NC(=O)[C@H](CCCNC(=N)N)NC(=O)[C@H]([C@@H](C)CC)NC1=O [compound 100] ({CH2CO}-AV[NMePhe(3-Cl)]VWN[3Pal(6-NH2)]Y(Carboxymethyl)IIRE(NH(CH2CH2O)8Me)[4Pal][NMeY]C[PEG4]-NH2; thioether N-15)	1 to 100	–	–
CC[C@H](C)[C@@H]1NC(=O)[C@H](Cc2ccc(OCC(=O)O)cc2)NC(=O)[C@H](Cc2ccc(O)cc2)NC(=O)[C@H](CC(N)=O)NC(=O)[C@H](Cc2cn(CC(=O)O)c3ccccc23)NC(=O)[C@H](C(C)C)NC(=O)[C@H](Cc2cccc(Cl)c2)N(C)C(=O)[C@H](C(C)C)NC(=O)[C@H](C)NC(=O)CSC[C@@H](C(=O)NCC(=O)N[C@H](CO)C(=O)N[C@H](CO)C(=O)N[C@H](CO)C(=O)N[C@H](CO)C(=O)N[C@H](CO)C(=O)N[C@@H](CCCCNC(=O)OC[C@@H]2[C@@H]3CCC#CCC[C@@H]32)C(N)=O)NC(=O)[C@H](Cc2ccc(O)cc2)N(C)C(=O)[C@H](Cc2ccccc2)NC(=O)[C@H](CCCNC(=N)N)NC(=O)[C@H](CCCNC(=N)N)NC(=O)[C@H]([C@@H](C)CC)NC1=O [894_3198] ({CH2CO}-AV[NMePhe(3-Cl)]V[Trp(1-CH2COOH)]NYY(Carboxymethyl)IIRRF[NMeY]CG[dS][dS][dS][dS][dS]K(BCN(endo))-NH2; thioether N-15)	–	< 1	–
894_3183 ({CH2CO}-AV[NMePhe(3-Cl)]V[Trp(1-CH2CO)]NY[F4aao]II[E(PEG8Me)][E(PEG8Me)]F[NMeY]CG[PEG8][Lys(N3)]-NH2; thioether N-15; SMILES CC[C@H](C)[C@@H]1NC(=O)[C@H](Cc2ccc(OCC(=O)O)cc2)NC(=O)[C@H](Cc2ccc(O)cc2)NC(=O)[C@H](CC(N)=O)NC(=O)[C@H](Cc2cn(CC(=O)O)c3ccccc23)NC(=O)[C@H](C(C)C)NC(=O)[C@H](Cc2cccc(Cl)c2)N(C)C(=O)[C@H](C(C)C)NC(=O)[C@H](C)NC(=O)CSC[C@@H](C(=O)NCC(=O)NCCOCCOCCOCCOCCOCCOCCOCCOCCC(=O)N[C@@H](CCCCN=[N+]=[N-])C(N)=O)NC(=O)[C@H](Cc2ccc(O)cc2)N(C)C(=O)[C@H](Cc2ccccc2)NC(=O)[C@H](CCC(=O)NCCOCCOCCOCCOCCOCCOCCOCCOC)NC(=O)[C@H](CCC(=O)NCCOCCOCCOCCOCCOCCOCCOCCOC)NC(=O)[C@H]([C@@H](C)CC)NC1=O)	–	–	SPR (KD class for binding to hTfR by SPR, peptide with the linker shown in the same line, 'low signal indicates no activity'): Low signal
CC[C@H](C)[C@@H]1NC(=O)[C@H](Cc2ccc(OCC(=O)O)cc2)NC(=O)[C@H](Cc2ccc(O)cc2)NC(=O)[C@H](CC(N)=O)NC(=O)[C@H](Cc2cn(CC(=O)O)c3ccccc23)NC(=O)[C@H](C(C)C)NC(=O)[C@H](Cc2cccc(Cl)c2)N(C)C(=O)[C@H](C(C)C)NC(=O)[C@H](C)NC(=O)CSC[C@@H](C(=O)NCCOCCOCCOCCOCCC(N)=O)NC(=O)[C@H](Cc2ccc(O)cc2)N(C)C(=O)[C@H](Cc2ccncc2)NC(=O)[C@H](CCC(=O)NCCOCCOCCOCCOCCOCCOCCOCCOC)NC(=O)[C@H](CCCNC(=N)N)NC(=O)[C@H]([C@@H](C)CC)NC1=O [compound 82] ({CH2CO}-AV[NMePhe(3-Cl)]V[Trp(1-CH2COOH)]NYY(Carboxymethyl)IIRE(NH(CH2CH2O)8Me)[4Pal][NMeY]C[PEG4]-NH2; thioether N-15)	1 to 100	–	–
CC[C@H](C)[C@@H]1NC(=O)[C@H](Cc2ccc(O)cc2)NC(=O)[C@H](Cc2ccc(O)cc2)NC(=O)[C@H](CC(N)=O)NC(=O)[C@H](Cc2c[nH]c3ccc(Cl)cc23)NC(=O)[C@H](C(C)C)NC(=O)[C@H](Cc2ccccc2)N(C)C(=O)[C@H](C(C)C)NC(=O)[C@H](C)NC(=O)CSC[C@@H](C(=O)NCC(=O)N[C@@H](CCCCN=[N+]=[N-])C(N)=O)NC(=O)[C@H](Cc2ccc(O)cc2)N(C)C(=O)[C@H](Cc2ccccc2)NC(=O)[C@H](CCCNC(=N)N)NC(=O)[C@H](CCCNC(=N)N)NC(=O)[C@H]([C@@H](C)CC)NC1=O [894_3153]	–	1 to 100	–
CC[C@H](C)[C@@H]1NC(=O)[C@H](Cc2ccc(OCC(=O)O)cc2)NC(=O)[C@H](Cc2ccc(O)cc2)NC(=O)[C@H](CC(N)=O)NC(=O)[C@H](Cc2cn(CC(=O)O)c3ccccc23)NC(=O)[C@H](C(C)C)NC(=O)[C@H](Cc2cccc(Cl)c2)N(C)C(=O)[C@H](C(C)C)NC(=O)[C@H](C)NC(=O)CSC[C@@H](C(=O)NCCOCCOCCOCCOCCC(N)=O)NC(=O)[C@H](Cc2ccc(O)cc2)N(C)C(=O)[C@H](Cc2ccccc2)NC(=O)[C@H](CCCNC(=N)N)NC(=O)[C@H](CCCCNC(=O)OC)NC(=O)[C@H]([C@@H](C)CC)NC1=O [894_0378]	–	< 1	–
